Test results taken from PMC5578959, “Selective LRRK2 kinase inhibition reduces phosphorylation of endogenous Rab10 and Rab12 in human peripheral mononuclear blood cells” (Scientific Reports, 2017).

Assays:
Test in all cases: KiNativ profiling in human PBMCs
Format in all cases: binding
[1] = test system: T1, PIK3CD; conditions: ATP
T1 construct: purchased ActivX Technologies (KiNativ)
Method in brief: (§1)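 In this live-cell format, PBMCs receive compound at 1 µM or 0.1 µM and kinase engagement is read out by KiNativ.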

[2] = test system: T2, MLK3
T2 construct: purchased ActivX Technologies (KiNativ)
Method in brief: as §1

[3] = test system: T3, DNAPK; conditions: ATP
T3 construct: purchased ActivX Technologies (KiNativ)
Method in brief: as §1

[4] = test system: T4, GCN2
T4 construct: purchased ActivX Technologies (KiNativ)
Method in brief: as §1

[5] = test system: T5, NEK4; conditions: Lys2
T5 construct: purchased ActivX Technologies (KiNativ)
Method in brief: as §1

[6] = test system: T6, PIK3CG; conditions: ATP
T6 construct: purchased ActivX Technologies (KiNativ)
Method in brief: as §1

[7] = test system: T7, PLK1; conditions: Lys1
T7 construct: purchased ActivX Technologies (KiNativ)
Method in brief: as §1

[8] = test system: T8, PRPK; conditions: ATP Loop
T8 construct: purchased ActivX Technologies (KiNativ)
Method in brief: as §1

[9] = test system: PCTAIRE1,PCTAIRE3; conditions: Lys2
Method in brief: as §1

[10] = test system: T9, CaMK2d; conditions: Lys1
T9 construct: purchased ActivX Technologies (KiNativ)
Method in brief: as §1

[11] = test system: T10, PIP4K2A; conditions: ATP
T10 construct: purchased ActivX Technologies (KiNativ)
Method in brief: as §1

[12] = test system: T11, eEF2K; conditions: ATP
T11 construct: purchased ActivX Technologies (KiNativ)
Method in brief: as §1

[13] = test system: ZC1/HGK,ZC2/TNIK,ZC3/MINK; conditions: Lys2
Method in brief: as §1

[14] = test system: T12, PIK3CB; conditions: ATP
T12 construct: purchased ActivX Technologies (KiNativ)
Method in brief: as §1

[15] = test system: T13, MARK2; conditions: Lys1
T13 construct: purchased ActivX Technologies (KiNativ)
Method in brief: as §1

[16] = test system: T14, RSK1 domain2; conditions: Lys2
T14 construct: RSK1 domain2; purchased ActivX Technologies (KiNativ)
Method in brief: as §1

[17] = test system: Wnk1,Wnk2,Wnk3; conditions: Lys2
Method in brief: as §1

[18] = test system: Wnk1,Wnk2,Wnk4; conditions: Activation Loop
Method in brief: as §1

[19] = test system: T15, FRAP; conditions: 0.1µM; ATP
T15 construct: purchased ActivX Technologies (KiNativ)
Method in brief: as §1

[20] = test system: T16, PI4KB; conditions: ATP
T16 construct: purchased ActivX Technologies (KiNativ)
Method in brief: as §1

[21] = test system: T17, MAP3K4; conditions: Lys2
T17 construct: purchased ActivX Technologies (KiNativ)
Method in brief: as §1

[22] = test system: T18, PKR
T18 construct: purchased ActivX Technologies (KiNativ)
Method in brief: as §1

[23] = test system: T19, PKN1
T19 construct: purchased ActivX Technologies (KiNativ)
Method in brief: as §1

[24] = test system: CDK11,CDK8; conditions: Lys2
Method in brief: as §1

[25] = test system: T20, GSK3B; conditions: Lys2
T20 construct: purchased ActivX Technologies (KiNativ)
Method in brief: as §1

[26] = test system: T21, Erk5; conditions: Lys2
T21 construct: purchased ActivX Technologies (KiNativ)
Method in brief: as §1

[27] = test system: T22, SYK
T22 construct: purchased ActivX Technologies (KiNativ)
Method in brief: as §1

[28] = test system: T23, CSK
T23 construct: purchased ActivX Technologies (KiNativ)
Method in brief: as §1

[29] = test system: T24, ZAP70
T24 construct: purchased ActivX Technologies (KiNativ)
Method in brief: as §1

[30] = test system: RSK1,RSK2,RSK3 domain1; conditions: Lys2
Method in brief: as §1

[31] = test system: T25, CaMK4
T25 construct: purchased ActivX Technologies (KiNativ)
Method in brief: as §1

[32] = test system: T26, JAK1 domain1; conditions: Protein Kinase Domain
T26 construct: JAK1 domain1; purchased ActivX Technologies (KiNativ)
Method in brief: as §1

[33] = test system: T27, LATS1
T27 construct: purchased ActivX Technologies (KiNativ)
Method in brief: as §1

[34] = test system: Wnk1,Wnk2; conditions: ATP Loop
Method in brief: as §1

[35] = test system: T28, TLK2
T28 construct: purchased ActivX Technologies (KiNativ)
Method in brief: as §1

Cn1cc(-c2c[nH]c3ncnc(N4CCOCC4)c23)cc1C#N [PFE-360]
% Inhibition ([1]; 0.1µM, peptide TKVNWLAHNVSKDNRQ): -9.3% | % Inhibition ([1]; 0.1µM, peptide VNWLAHNVSKDNRQ): 0.5% | % Inhibition ([1]; 1µM, peptide TKVNWLAHNVSKDNRQ): -11.6% | % Inhibition ([1]; 1µM, peptide VNWLAHNVSKDNRQ): 1.4% | % Inhibition ([2]; 0.1µM, Lys1): 5% | % Inhibition ([2]; 0.1µM, Lys2): -4.6% | % Inhibition ([2]; 1µM, Lys1): -5.6% | % Inhibition ([2]; 1µM, Lys2): 10.2% | % Inhibition ([3]; 0.1µM, peptide EHPFLVKGGEDLR): 0.3% | % Inhibition ([3]; 0.1µM, peptide KGGSWIQEINVAEK): -1.9% | % Inhibition ([3]; 1µM, peptide EHPFLVKGGEDLR): -12.5% | % Inhibition ([3]; 1µM, peptide KGGSWIQEINVAEK): -4.9% | % Inhibition ([4]; 0.1µM, Lys1): 3.5% | % Inhibition ([4]; 0.1µM, Lys2): -3.6% | % Inhibition ([4]; 1µM, Lys1): -13.3% | % Inhibition ([4]; 1µM, Lys2): 2.5% | % Inhibition ([5]; 0.1µM): 9.8% | % Inhibition ([5]; 1µM): -8.3% | % Inhibition ([6]; 0.1µM): -1.2% | % Inhibition ([6]; 1µM): -7% | % Inhibition ([7]; 0.1µM): -4.1% | % Inhibition ([7]; 1µM): -6.7% | % Inhibition ([8]; 0.1µM): 2.6% | % Inhibition ([8]; 1µM): 8.1% | % Inhibition ([9]; 0.1µM): 1.3% | % Inhibition ([9]; 1µM): 11.4% | % Inhibition ([10]; 0.1µM): 0.1% | % Inhibition ([10]; 1µM): -3% | % Inhibition ([11]; 0.1µM, peptide AKELPTLKDNDFINEGQK): -3.9% | % Inhibition ([11]; 0.1µM, peptide YIIKTITSEDVAEMHNILK): -34.5% | % Inhibition ([11]; 1µM, peptide AKELPTLKDNDFINEGQK): -16.3% | % Inhibition ([11]; 1µM, peptide YIIKTITSEDVAEMHNILK): -40% | % Inhibition ([12]; 0.1µM): 15.7% | % Inhibition ([12]; 1µM): -1.8% | % Inhibition ([13]; 0.1µM): 10.3% | % Inhibition ([13]; 1µM): -7.3% | % Inhibition ([14]; 0.1µM): -27.2% | % Inhibition ([14]; 1µM): 12.3% | % Inhibition ([15]; 0.1µM): -8.9% | % Inhibition ([15]; 1µM): 2.3% | % Inhibition ([16]; 0.1µM): -5.4% | % Inhibition ([16]; 1µM): -11.2% | % Inhibition ([17]; 0.1µM): 11.3% | % Inhibition ([17]; 1µM): 1.3% | % Inhibition ([18]; 0.1µM): 4.7% | % Inhibition ([18]; 1µM): 2.2% | % Inhibition [19]: -1.2% | % Inhibition ([20]; 0.1µM, peptide LLSVIVKCGDDLRQELLAFQVLK): -14.7% | % Inhibition ([20]; 0.1µM, peptide VPHTQAVVLNSKDK): 3.6% | % Inhibition ([20]; 1µM, peptide LLSVIVKCGDDLRQELLAFQVLK): -10.6% | % Inhibition ([20]; 1µM, peptide VPHTQAVVLNSKDK): -12.4% | % Inhibition ([21]; 0.1µM): -0.3% | % Inhibition ([21]; 1µM): -7.3% | % Inhibition ([22]; 0.1µM, Activation Loop): -1.7% | % Inhibition ([22]; 0.1µM, Lys2): -0.1% | % Inhibition ([22]; 1µM, Activation Loop): -6.6% | % Inhibition ([22]; 1µM, Lys2): -9.3% | % Inhibition ([23]; 0.1µM, Lys1): -4.7% | % Inhibition ([23]; 0.1µM, Lys2): -3.5% | % Inhibition ([23]; 1µM, Lys1): -10.8% | % Inhibition ([23]; 1µM, Lys2): -25.9% | % Inhibition ([24]; 0.1µM): -9.1% | % Inhibition ([24]; 1µM): 9.6% | % Inhibition ([25]; 0.1µM): 11.2% | % Inhibition ([25]; 1µM): 14.9% | % Inhibition ([26]; 0.1µM): 5% | % Inhibition ([26]; 1µM): 7.2% | % Inhibition ([27]; 0.1µM, Activation Loop): 1.9% | % Inhibition ([27]; 0.1µM, Lys1): 0.1% | % Inhibition ([27]; 1µM, Activation Loop): -4.4% | % Inhibition ([27]; 1µM, Lys1): -13% | % Inhibition ([28]; 0.1µM, Activation Loop): -3.4% | % Inhibition ([28]; 0.1µM, Lys1): 0.7% | % Inhibition ([28]; 1µM, Activation Loop): -10.5% | % Inhibition ([28]; 1µM, Lys1): -10.4% | % Inhibition ([29]; 0.1µM, Activation Loop): -0.7% | % Inhibition ([29]; 0.1µM, Lys1): 0.4% | % Inhibition ([29]; 1µM, Activation Loop): -9.8% | % Inhibition ([29]; 1µM, Lys1): -5.9% | % Inhibition ([30]; 0.1µM): 14.5% | % Inhibition ([30]; 1µM): 16.3% | % Inhibition ([31]; 0.1µM, Lys1): -10.2% | % Inhibition ([31]; 0.1µM, Lys2): 15% | % Inhibition ([31]; 1µM, Lys1): -8.5% | % Inhibition ([31]; 1µM, Lys2): 9.5% | % Inhibition ([32]; 0.1µM): 16.2% | % Inhibition ([32]; 1µM): 8.2% | % Inhibition ([33]; 0.1µM, Lys1): 5.2% | % Inhibition ([33]; 0.1µM, Lys2): 3.2% | % Inhibition ([33]; 1µM, Lys1): 0.9% | % Inhibition ([33]; 1µM, Lys2): 0.1% | % Inhibition ([34]; 0.1µM): -5.4% | % Inhibition ([34]; 1µM): -15.3% | % Inhibition ([35]; 0.1µM, Lys1): -8.8% | % Inhibition ([35]; 0.1µM, Lys2): -5.5% | % Inhibition ([35]; 1µM, Lys1): -9.2% | % Inhibition ([35]; 1µM, Lys2): -10.6%
